# Measurements as given in patent publication US20090292021A1, “ANTICONVULSIVE PHARMACEUTICAL COMPOSITIONS” (INSERM (INSTITUT NATIONAL DE LA SANTE ET DE LA REC, priority 2006, published 2009).
# Legend:
# Type in all cases: in vivo, rat
# Wistar rats [1] = assay: Flicker ERG recording in VGB-treated rats; details: for decrease of flicker ERG amplitude: vs before treatment
# Procedure: (§1) As described previously Duboc, A., Hanoteau, N., Simonutti, M., Rudolf, G., Nehlig, A., Sahel, J. A., Picaud, S. (2004). “Vigabatrin, the GABA-transaminase inhibitor, damages cone photoreceptors in rats.” Annals of Neurology 55(5): 695-705), Wistar rats Rj Wi IOPS Han were purchased from Janvier Breeding Center (Le Genest St Isle, France) at 7 weeks and acclimatised for 2 weeks. VGB was dissolved in 0.9% NaCl at a concentration of 125 mg/ml. It was injected daily and intraperitonealy at a final dose of 250 mg/kg. To investigate the progression of visual defects with the treatment duration, rats of the same age were divided in five groups and treated with the drug for different times as described in table 1 hereunder.
# Flicker ERGs were recorded on each animal before the treatment, at the end of the VGB treatment, and 4-day later. For the study of functional recovery after VGB withdrawal, flicker ERGs were recorded before the treatment, at 35-day of treatment, 16-day recovery and 60-day recovery period.
# Animals were kept in the dark room for at least 12 hours and handled under dim red light. They were anaesthetized by an intraperitoneal (i.p) injection (1 to 1.5 ml/kg) of a solution containing ketamine (40 mg/ml) and xylazine (4 mg/ml Rompum). Pupils were dilated with a drop of 0.5% tropicamide, and the cornea was locally anaesthetized with a drop of 0.4% chlorhydrate d'oxybupropacaïne. Measurements were obtained from the right eye of animals laid on a temperature controlled blanket. The measuring electrode, a gold ring covered with a plastic contact lens, was placed on the cornea and a tight electrical contact was obtained by addition of methylcellulose. The reference and ground electrodes made from needles were subcutaneously inserted at the head and the tail respectively. Finally, the whole animal was placed in a Ganzfeld bowl delivering light stimuli (Toennies Multiliner Vision, Höchberg, Germany). For flickering ERG measurements, animals were adapted for 10 minutes to a white background light at a 25 cdm^−2 to suppress rod responses. Flicker responses were obtained with 50 white light flashes at a 2.5 cdsm^−2 intensity and a 15 Hz flickering frequency (High pass filter 1 Hz and low pass filter 300 Hz). Amplitude and implicit time responses of the flicker ERG were measured at the first maximum positive peak with respect to the light onset.
# Wistar rats [2] = assay: Exploration of eye fundus with scanning laser ophthalmoscope (SLO)
# Procedure: as §1
# Examination of the eye fundus was performed with a Scanning Laser Opthalmoscope (SLO) (HRA, Heidelberg, Dossenheim, Allemagne). Pupils were dilated with a drop of 0.5% tropicamide. During the examination an experimenter hold the animal to point the eye in the axis of camera. To limit animal stress, the duration of examination was minimized and these short sequences were alternated with rests periods. Eye fundus in each animal eye was examined in unanaesthetized rats with the 534 nm laser light beam using a filter to decrease its intensity. Fundus autofluorescence was obtained with the 488 nm laser beam.
# Wistar rats [3] = assay: VEGF immunolabeling of retinal sections; details: VGB-treated vs control animals
# Procedure: as §1
# After the animal sacrifice, the cornea was branded at the upper side to orient the eye cup. The eyes were dissected, the cornea and lens removed and a nick was made on the upper side of the eye cup. Eye cups were embedded in OCT (Labonord, Villeneuve d'Ascq, France) to prepare cryosection (Duboc et al 2004, Supra). Dorso-ventral retinal sections passing through the optic nerve were stained with Diamidi-phenyl-indole (DAPI). […] The retinal length showing displaced photoreceptor nuclei was measured on both part of the optic nerve on the retina of VGB-treated rat. […]
# Wistar rats [4] = assay: Immunolabeling of retinal sections: cone arrestin (cone count) and G0α (ON bipolar cells); details: treated for 45 days
# Procedure: as §1
# After the animal sacrifice, the cornea was branded at the upper side to orient the eye cup. The eyes were dissected, the cornea and lens removed and a nick was made on the upper side of the eye cup. Eye cups were embedded in OCT (Labonord, Villeneuve d'Ascq, France) to prepare cryosection (Duboc et al 2004, Supra). Dorso-ventral retinal sections passing through the optic nerve were stained with Diamidi-phenyl-indole (DAPI). The DAPI-nuclear staining was visualized on a Leica microscope (20× objective) and digitalized on a camera coupled to optical image analysis software (Analysis program). The retinal length showing displaced photoreceptor nuclei was measured on both part of the optic nerve on the retina of VGB-treated rat.
# For immunolabeling, the oriented retinal sections were permeabilized for 5 minutes in PBS containing 0.1% Triton X-100 (Sigma, St Louis, Mo.), rinsed and incubated in PBS containing 1% bovine serum albumin (Eurobio, Les-Ulis, France), 0.1% Tween 20 (Sigma) and 0.1% sodium azide (Merck, Fontenay-Sous-Bois) for 2 hours at room temperature. The primary antibodies added to the solution were incubated for 2 hours at room temperature. Antibodies used were the anti-VEGF rabbit polyclonal antibody (1:400, Ab-1, NeoMarkers, Interchim, France), the monoclonal anti-vimentin antibody (1:400, cloneV9, DAKO, France), the polyclonal mCAR antibody (1:10,000; a gift from Dr Cheryl Craft (Keck School of Medicine of the University of Southern California, Los Angeles, USA)), and the monoclonal anti-G0-α antibody (1:500, Chemicon). After several washes, sections were incubated with the secondary antibodies, goat anti-rabbit IgG conjugated to Alexa TM 594 and goat anti-mouse IgG conjugated to Alexa TM 488 (1:500, (Molecular Probes, Eugene, Oreg.) for 2 hours. The nuclear dye, DAPI, was added in an incubation solution. Sections were mounted with the Fluorsave reagent (Calbiochem, San Diego, Calif.).
# Wistar rats [5] = assay: Indocyanine green (ICG) angiography of choroidal vessels
# Procedure: as §1
# For ICG angiography, animals were anesthetized as above. A solution of Infracyanine (0.1 ml, 5 mg/ml, Société d'Etude et de Recherche Biologiques, Paris, France) dissolved in distilled water was injected intravenously. Images were obtained with the 795 nm laser light immediately after the injection.
# Wistar rats [6] = assay: Length of disorganized outer retina on DAPI-stained retinal sections; details: treatment of 45 days, mean ± S.E.M, n=8
# Procedure: as §1
# After the animal sacrifice, the cornea was branded at the upper side to orient the eye cup. The eyes were dissected, the cornea and lens removed and a nick was made on the upper side of the eye cup. Eye cups were embedded in OCT (Labonord, Villeneuve d'Ascq, France) to prepare cryosection (Duboc et al 2004, Supra). Dorso-ventral retinal sections passing through the optic nerve were stained with Diamidi-phenyl-indole (DAPI). […] The retinal length showing displaced photoreceptor nuclei was measured on both part of the optic nerve on the retina of VGB-treated rat.
structure (smiles),measurement,setting,value
"C=CC(N)CCC(=O)O (centres unmarked) [VGB, 4-amino-5-hexenoic acid]",flicker ERG amplitude,"Wistar rats [1]; 15-day treatment, after 4-day recovery period",51 μV
same,flicker ERG amplitude,"Wistar rats [1]; 25-day treatment, after 4-day recovery period",38 μV
same,flicker ERG amplitude,"Wistar rats [1]; 35-day treatment, after 4-day recovery period",50 μV
same,flicker ERG amplitude,"Wistar rats [1]; end of 5-day treatment, 250 mg/kg daily i.p.",83 μV
same,flicker ERG amplitude,"Wistar rats [1]; end of 15-day treatment, 250 mg/kg daily i.p.",52 μV
same,decrease of flicker ERG amplitude,Wistar rats [1]; end of 15-day treatment,45%
same,flicker ERG amplitude,"Wistar rats [1]; end of 25-day treatment, 250 mg/kg daily i.p.",21 μV
same,decrease of flicker ERG amplitude,Wistar rats [1]; end of 25-day treatment,79%
same,flicker ERG amplitude,"Wistar rats [1]; end of 35-day treatment, 250 mg/kg daily i.p.",29 μV
same,decrease of flicker ERG amplitude,Wistar rats [1]; end of 35-day treatment,71%
same,flicker ERG amplitude,"Wistar rats [1]; recovery study, 35-day treatment, 16-day recovery",84 μV
same,reduction of flicker ERG,"Wistar rats [1]; recovery study, 35-day treatment, 16-day recovery, vs value before treatment",31%
same,flicker ERG amplitude,"Wistar rats [1]; recovery study, 35-day treatment, 60-day recovery",88 μV
same,reduction of flicker ERG,"Wistar rats [1]; recovery study, 35-day treatment, 60-day recovery, vs value before treatment",28%
same,flicker ERG amplitude,"Wistar rats [1]; recovery study, 35-day treatment, immediately after treatment, n=6",51 μV
same,reduction of flicker ERG,"Wistar rats [1]; recovery study, 35-day treatment, immediately after treatment, vs beginning of experiment",58%
same,"retinal autofluorescence, SLO","Wistar rats [2]; 488 nm laser, in vivo",fluorescent spots were observed in the modified areas in two rats
same,"modified retinal areas at eye fundus, SLO",Wistar rats [2]; after arresting the VGB treatment for one month (n=2),remained visible
same,"modified retinal areas (dark/grey network) at eye fundus, green laser SLO","Wistar rats [2]; after treatment of 25 days (n=4), 35 days (n=1) and 55 days (n=4)",present in all animals examined
same,"modified retinal areas at eye fundus, SLO",Wistar rats [2]; animals treated for 5 days (n=1) or 11 days (n=3),No such modified areas were detected
same,VEGF expression in retina (Müller glial cells),Wistar rats [3],increase in VEGF expression
same,ON bipolar cells labeled with G0α antibody,Wistar rats [4],some cells were observed to send a process into the ONL
same,"cone morphology, cone arrestin labelling",Wistar rats [4],many cones were observed to be truncated
same,decrease in density of cones vs control rats,Wistar rats [4]; cone arrestin immunolabeling,18.7%
same,density of cones,"Wistar rats [4]; cone arrestin immunolabeling, n=7",12.34±0.36 cells/300 μm
same,size or aspect of the choroidal vasculature,Wistar rats [5]; after treatment of 25 (n=4) and 55 days (n=4),no change in the size or aspect of the choroidal vasculature could be detected
same,ICG fluorescence in areas showing modified eye fundus after extravasation,Wistar rats [5]; animals treated for 55 days,inhomogeneous fluorescent image
same,"length of disorganized outer retina, lower pole",Wistar rats [6],70 μm
same,"length of disorganized outer retina, upper pole",Wistar rats [6],1106 μm
